Results taken from US8440835B2, “Environmentally sensitive fluorophores” (Massachusetts Institute of Technology, priority 2007, dated 2013).
Each block holds one compound with its values, some of them ahead of it.

What was measured:
Format in all cases: physicochemical
[1] = Fluorescence spectra of the KR peptide series in dioxane vs. TBS buffer; details: for fluorescence intensity ratio (Idioxane/ITBS), in words: at the wavelength of maximum emission intensity in dioxane
Procedure: This example illustrates investigations into the biological applications of the dimethylamino phthalimide series of environment sensitive fluorophores (FIGS. 3C-3E), as compared to both dansyl and NBD. A comparative study was performed on the fluorophores of FIG. 3 by synthetically preparing a series of lysine-arginine rich peptides (KR peptide series) such that each peptide in the series contained one of the five fluorophores appended to the side-chain of the residue at position 4 in the peptide sequence (FIG. 4), SEQ ID NOs: 5-9. The fluorescence spectra of the KR peptides were then measured at 5 micromolar in both TBS buffer (pH 7.4) and dioxane (containing 5 mM 18-crown-6). These conditions were selected to determine the magnitude of the fluorescence change for each fluorophore under an ideal set of conditions. […] An advantage of this property is a much improved signal-to-noise ratio for experimental measurements made in the context of real biological systems. […] While it is often possible to optimize the maximum fluorescence output by experimenting with the placement of the selected fluorophore on the protein of interest, the intrinsic fluorescence of the fluorophore in aqueous environments is often a limiting factor when optimizing the fluorescent response.

[2] = Hydrolysis of the imide ring followed by fluorescence in PBS buffer over 24 hours
Procedure: The 4DMAP and 6DMN fluorophores are likely susceptible to the gradual hydrolysis of the imide ring system in the pH range of 7 to 8. The origin of this reactivity can be attributed to the bond angle strain of the five-membered imide ring system that is released during the ring opening process. […] This is apparent in an experiment performed on both the KR4DMAP and KR4DMN peptides using a PerkinElmer HTS7000 plate reader. Fluorescence of the two peptides was measured at their respective emission wavelengths in PBS buffer over a 24 hour period at 28° C.
The fluorophore remained intact throughout the 24 hr duration. This difference between the stability of 4DMN and that of 4DMAP is most evident at pH 8 where the rate of hydrolysis for 4DMAP is greatest (FIG. 7).

[3] = Resistance of the 4DMN side chain to solid-phase peptide synthesis conditions; details: 0.12 M diisopropylethylamine; 20% piperidine; 95% TFA
Procedure: The peptide synthesis was carried out using standard Fmoc-based solid phase peptide synthesis (SPPS) protocols on a 0.05 to 0.1 mmol scale using a 0.21 mmol/g loading PAL-PEG-PS solid support. Amino acids were coupled in three-fold excess using a mixture of 0.2 M HBTU/0.2 M HOBt in DMF as activating agents. Each amino acid was activated for two minutes with the HBTU/HOBt mixture (1 eq.) and diisopropylethylamine (DIPEA), 0.195 M in DMF (1.5 eq.) before being added to the resin. Peptide coupling was monitored using the 2,4,6-trinitrobenzenesulphonic acid (TNBS) test. Amino acids were used as protected Fmoc-amino acids with the standard side chain protecting groups. High-performance liquid chromatography (HPLC) was performed using a Waters 600E HPLC fitted with a Waters 600 automated control module and a Waters 2487 dual wavelength absorbance detector recording at 228 and 280 nm. For analytical HPLC, a Beckman Ultrasphere C18, 5 micrometer, 4.6×150 mm reverse-phase column was used. For preparative separations, a YMC-pack, C18, 250×20 mm reversed phase column was used. The standard gradient for analytical and preparative HPLC used was 93:7 to 5:95 over 35 minutes (water:acetonitrile, 0.1% TFA).

[4] = Exposure to standard Fmoc deprotection protocol (20% 4-methylpiperidine in DMF) on solid support, analysis by MALDI-MS, HPLC, ESI-MS
Procedure: This example illustrates the incorporation of 4DMAP and 6DMN into peptides by coupling an anhydride precursor of either fluorophore to a free amine on a fully synthesized peptide in the last step prior to cleaving the peptide from the solid support. […] This is evident in the experiment shown in FIG. 9 where the KR peptides of 4DMN and 6DMN were both exposed to a standard Fmoc deprotection protocol while still on solid support. Roughly 20 mg of resin for each peptide was transferred to a small 2 mL spin tube and treated at room temperature with a solution of 20% 4-methylpiperidine in DMF (3×5 min). The peptides were then cleaved from the resin and analyzed by MALDI-MS, HPLC, and ESI-MS.
The masses of these two peaks determined by ESI-MS were identical and confirmed to be that of the 4-methylpiperidine adduct. It is believed that the occurrence of the two byproduct peaks, instead of one, is due to varying retention times for the two possible isomers formed depending on which of the imide carbonyls are attacked by the base. […] The HPLC and ESI-MS analysis also confirmed that no reaction occurred. The 4DMNA amino acid appears to be unreactive under these conditions. Furthermore, it is worth emphasizing that the 4DMN chromophore was exposed to this same treatment twice previously during the preparation of the KR4DMN peptide using the 4DMNA Fmoc building-block.

Compound: dansyl
λexc ([1]; KR peptide series): below 350 nm

Compound: CN(C)c1ccc2cc3c(cc2c1)C(=O)NC3=O [6DMN, 6-N,N-dimethylamino-2,3-naphthalimide]
fluorescence intensity ratio (Idioxane/ITBS), in words [1]: greater than three orders of magnitude

Compound: CN(C)c1ccc2c3c(cccc13)C(=O)N(CC(N)C(=O)O)C2=O (stereo not drawn) [4DMNA]
formation of 4-methylpiperidine adduct ([4]; 20% 4-methylpiperidine in DMF, 3×5 min, room temperature, on resin): unreactive

Continued, values first:

fluorescence intensity ratio (Idioxane/ITBS), in words [1]: greater than three orders of magnitude
hydrolysis of the imide ring system ([2]; pH range of 7 to 8): no such reactivity
resistance to peptide synthesis conditions [3]: resistant
Compound: CN(C)c1ccc2c3c(cccc13)C(=O)NC2=O [4DMN, 4-N,N-dimethylamino-1,8-naphthalimide]

susceptibility to nucleophilic attack by bases like 4-methylpiperidine ([4]; use in preparation of various peptides): no susceptibility
Compound: CN(C)c1ccc2c3c(cccc13)C(=O)N(CC(NC(=O)OCC1c3ccccc3-c3ccccc31)C(=O)O)C2=O (stereo not drawn) [Fmoc-4DMNA, N-α-Fmoc-(4-N,N-dimethylamino-1,8-naphthalimido) alanine]

fluorescence intensity ratio (Idioxane/ITBS), in words [1]: greater than three orders of magnitude
rate of hydrolysis ([2]; pH 8, PBS buffer, 28° C.): significantly enhanced
Compound: CN(C)c1ccc2c(c1)C(=O)NC2=O [4DMAP, 4-dimethylamino phthalimide, reference compound]
